In US7785828B1 (priority 2003, dated 2010):
Like-named read-outs stand apart in the source and are kept apart here.

Columns and labels:
Format in all cases: cell-based
[1] = system: Fusarium graminearum
[2] = system: Mycosphaerella fijiensis
[3] = system: Septoria tritici
[4] = system: Fusarium graminearum; design: key: + indicates a 1- to 5-fold improvement in activity compared to a reference defensin protein; ++ indicates a >5- to 10-fold improvement; +++ indicates a >10-fold improvement; “0” indicates no activity detected
[5] = Table 2B (Dm-AMP1 based libraries), improvement compared to reference defensin protein (Rs-AFP2 for Table 2B [sic])
[6] = Table 2C (mixed diversity library), improvement compared to reference defensin protein DmAMP

Row | Substance | Antifungal activity, Fusarium graminearum (improvement compared to DmAMP1) [1] | Antifungal activity, Mycosphaerella fijiensis (improvement compared to DmAMP1) [2] | Antifungal activity, Septoria tritici (improvement compared to DmAMP1) [3] | Activity (1): antifungal activity of the NP against Fusarium graminearium [4, 6] | other results
1 | NLCERASKTWSGNCGNTKHCDTQCRNWEGAAHGACHVRNGKHKCFCYFNC (NLCERASKTWSGNCGNTKHCDTQCKNWEGAAHGACHVRNGKHKCFCYFNC; Defensin like) [L6-57] | +++ (key: + indicating 1- to 5-fold improvement compared to DmAMP1; ++ indicating >5- to 10-fold improvement; +++ indicating >10-fold improvement) | ++ (key: + indicating 1- to 5-fold improvement compared to DmAMP1; ++ indicating >5- to 10-fold improvement; +++ indicating >10-fold improvement) | + (key: + indicating 1- to 5-fold improvement compared to DmAMP1; ++ indicating >5- to 10-fold improvement; +++ indicating >10-fold improvement) | – | –
2 | NLCEKASKTWTGNCGNTKHCDTQCKSWEGAKHGACHVRSGKHKCFCYFNC (Defensin like) [L9-29] | +++ (key: + indicating 1- to 5-fold improvement compared to DmAMP1; ++ indicating >5- to 10-fold improvement; +++ indicating >10-fold improvement) | ++ (key: + indicating 1- to 5-fold improvement compared to DmAMP1; ++ indicating >5- to 10-fold improvement; +++ indicating >10-fold improvement) | ++ (key: + indicating 1- to 5-fold improvement compared to DmAMP1; ++ indicating >5- to 10-fold improvement; +++ indicating >10-fold improvement) | – | –
3 | NLCERASKTWSGNCGNTKHCDTQCRNWEGAKHGACHKRSGKWKCFCYFNC (Defensin like) [L9-09] | +++ (key: + indicating 1- to 5-fold improvement compared to DmAMP1; ++ indicating >5- to 10-fold improvement; +++ indicating >10-fold improvement) | + (key: + indicating 1- to 5-fold improvement compared to DmAMP1; ++ indicating >5- to 10-fold improvement; +++ indicating >10-fold improvement) | + (key: + indicating 1- to 5-fold improvement compared to DmAMP1; ++ indicating >5- to 10-fold improvement; +++ indicating >10-fold improvement) | – | –
4 | NLCEKASKTWSGNCGNTKHCDNQCKNWEGAAHGACHVRNGKHKCFCYFNC (Defensin like) [L6-70] | +++ (key: + indicating 1- to 5-fold improvement compared to DmAMP1; ++ indicating >5- to 10-fold improvement; +++ indicating >10-fold improvement) | + (key: + indicating 1- to 5-fold improvement compared to DmAMP1; ++ indicating >5- to 10-fold improvement; +++ indicating >10-fold improvement) | + (key: + indicating 1- to 5-fold improvement compared to DmAMP1; ++ indicating >5- to 10-fold improvement; +++ indicating >10-fold improvement) | – | –
5 | NLCERASKTWSGNCGNTKHCDNQCRNWEGAKHGACHVRNGKWKCFCYFNC [L6-40] (Defensin like) | +++ (key: + indicating 1- to 5-fold improvement compared to DmAMP1; ++ indicating >5- to 10-fold improvement; +++ indicating >10-fold improvement) | + (key: + indicating 1- to 5-fold improvement compared to DmAMP1; ++ indicating >5- to 10-fold improvement; +++ indicating >10-fold improvement) | +++ (key: + indicating 1- to 5-fold improvement compared to DmAMP1; ++ indicating >5- to 10-fold improvement; +++ indicating >10-fold improvement) | – | –
6 | NLCEKASKTWSGNCGNTGHCDTQCKNWEGAKHGACHVRNGKHKCFCYFNC (Defensin like) [L5-12] | ++ (key: + indicating 1- to 5-fold improvement compared to DmAMP1; ++ indicating >5- to 10-fold improvement; +++ indicating >10-fold improvement) | + (key: + indicating 1- to 5-fold improvement compared to DmAMP1; ++ indicating >5- to 10-fold improvement; +++ indicating >10-fold improvement) | ++ (key: + indicating 1- to 5-fold improvement compared to DmAMP1; ++ indicating >5- to 10-fold improvement; +++ indicating >10-fold improvement) | – | –
7 | NLCEKASKTWTGNCGNTKHCDTQCKNWEGAKHGACHKRNGKWKCFCYFNC (Defensin like) [L9-45] | + (key: + indicating 1- to 5-fold improvement compared to DmAMP1; ++ indicating >5- to 10-fold improvement; +++ indicating >10-fold improvement) | + (key: + indicating 1- to 5-fold improvement compared to DmAMP1; ++ indicating >5- to 10-fold improvement; +++ indicating >10-fold improvement) | + (key: + indicating 1- to 5-fold improvement compared to DmAMP1; ++ indicating >5- to 10-fold improvement; +++ indicating >10-fold improvement) | – | –
8 | NLCEKASKTWTGNCGNTKHCDTQCKNWEGAKHGACHVRNGKWKCFCYFNC (Defensin like) [L6-69] | +++ (key: + indicating 1- to 5-fold improvement compared to DmAMP1; ++ indicating >5- to 10-fold improvement; +++ indicating >10-fold improvement) | + (key: + indicating 1- to 5-fold improvement compared to DmAMP1; ++ indicating >5- to 10-fold improvement; +++ indicating >10-fold improvement) | +++ (key: + indicating 1- to 5-fold improvement compared to DmAMP1; ++ indicating >5- to 10-fold improvement; +++ indicating >10-fold improvement) | – | –
9 | NLCERASKTWSGNCGNTKHCDNQCRNWEGAAHGACHVRNGKHKCFCYFNC (Defensin like) [L6-59] | – | + (key: + indicating 1- to 5-fold improvement compared to DmAMP1; ++ indicating >5- to 10-fold improvement; +++ indicating >10-fold improvement) | + (key: + indicating 1- to 5-fold improvement compared to DmAMP1; ++ indicating >5- to 10-fold improvement; +++ indicating >10-fold improvement) | – | –
10 | NLCERASKTWTGNCGNTKHCDNQCKSWEGAKHGACHVRSGKHKCFCYFNC (Defensin like) [L5-37] | – | – | – | – | Activity (1): antifungal activity of the NP against Fusarium graminearium [4, 5]: ++ (++ indicates a >5- to 10-fold improvement)
11 | ---NLCERASKTWSGHCGNTKHCDNQCRNWEGAKHGACHKRNGKWKCFCYFNC (Defensin like) [L7-11] | – | – | – | ++ (++ indicates a >5- to 10-fold improvement) | –
12 | NLCERASKTWTGNCGNTKHCDTQCRSWEGAKHGACHVRSGKHKCFCYFNC (Defensin like) [L5-32] | – | – | – | – | Activity (1): antifungal activity of the NP against Fusarium graminearium [4, 5]: + (+ indicates a 1- to 5-fold improvement in activity compared to a reference defensin protein)
13 | DGVKLCERASKTWSGHCGNTKHCDKQCKNWEKAKHGACHKRSGKWKCFCYFNC (Defensin like) [L7-219] | – | – | – | + (+ indicates a 1- to 5-fold improvement in activity compared to a reference defensin protein) | –
14 | ---NLCERPSKTWTGHCGNTKHCDKQCKSWEGAKHGACHVRSGKWKCFCYFNC (Defensin like) [L7-26] | – | – | – | ++ (++ indicates a >5- to 10-fold improvement) | –
15 | DGVKLCERASQTWSGHCGNTKHCDKQCKNWEKAAHGACHVRSGKWKCFCYFNC (Defensin like) [L7-14] | – | – | – | ++ (++ indicates a >5- to 10-fold improvement) | –
16 | DGVKLCEKASQTWTGNCGNTKHCDNQCKNWEKAKHGACHKRSGKWKCFCYFNC (Defensin like) [L7-42] | – | – | – | + (+ indicates a 1- to 5-fold improvement in activity compared to a reference defensin protein) | –
17 | ELCERASKTWTGNCGNTKHCDNQCRSWESAAHGACHKRSGKWKCFCYFNC (Defensin like) [L3-87] | – | – | – | – | Activity (1): antifungal activity of the NP against Fusarium graminearium [4, 5]: ++ (++ indicates a >5- to 10-fold improvement)
18 | --QKLCERPSQTWTGHCGNTKHCDTQCKSWEGAKHGACHKRNGKWKCFCYFNC (Defensin like) [L7-44] | – | – | – | + (+ indicates a 1- to 5-fold improvement in activity compared to a reference defensin protein) | –
19 | DGVKLCEKPSQTWTGNCGNTKHCDKQCRNWEKAKHGACHKRNGKWKCFCYFNC (Defensin like) [L7-46] | – | – | – | + (+ indicates a 1- to 5-fold improvement in activity compared to a reference defensin protein) | –
20 | DGVKLCERASKTWSGHCGNTKHCDNQCRSWEGAKHGACHVRSGKHKCFCYFNC (Defensin like) [L7-213] | – | – | – | ++ (++ indicates a >5- to 10-fold improvement) | –
21 | NLCERASKTWTGNCGNTKHCDTQCRNWEGAKHGACHVRNGKWKCFCYFNC (Defensin like) [L5-46] | – | – | – | – | Activity (1): antifungal activity of the NP against Fusarium graminearium [4, 5]: + (+ indicates a 1- to 5-fold improvement in activity compared to a reference defensin protein)
22 | QKLCERPSGTWSGVCMNSNACKNQCIRLEGARHGSCNYVFPAHKCICYFPC (Defensin like) [L2-53] | – | – | – | – | Activity (1): antifungal activity of the NP against Fusarium graminearium [4]: 0
23 | NLCERASKTWTGNCGNTKHCDNQCKNWEGAAHGACHKRSGKWKCFCYFNC (Defensin like) [L10-80] | – | – | – | – | Activity (1): antifungal activity of the NP against Fusarium graminearium [4, 5]: ++ (++ indicates a >5- to 10-fold improvement)
24 | DGVKLCERASKTWTGHCGNTKHCDKQCKNWEKAAHGACHVRNGKWKCFCYFNC (DGVKLCERASKTWSGHCGNTKHCDKQCKNWEKAAHGACHVRNGKWKCFCYFSC; Defensin like) [L7-93] | – | – | – | +++ (+++ indicates a >10-fold improvement) | –
25 | ELCERASLTWTGNCGNTKHCDTQCKSWEGAKHGACHKRSGKWKCFCYFNC (Defensin like) [L3-96] | – | – | – | – | Activity (1): antifungal activity of the NP against Fusarium graminearium [4, 5]: + (+ indicates a 1- to 5-fold improvement in activity compared to a reference defensin protein)
26 | NLCERASKTWTGNCGNTKHCDNQCKSWEGAKHGACHVRNGKWKCFCYFNC (Defensin like) [L10-64] | – | – | – | – | Activity (1): antifungal activity of the NP against Fusarium graminearium [4, 5]: ++ (++ indicates a >5- to 10-fold improvement)
